Results: the NIST ThermoML archive (doi:10.1016/j.jct.2017.10.017)
Numbers after ± are expanded uncertainties.

Details: for Glass transition temperature: DSC; for Normal melting temperature: Crystal, DTA

| Glass transition temperature | Normal melting temperature | Structure (SMILES) |
| --- | --- | --- |
| -49 ± 6 °C | – | CCCC[N+](C)(CCO)CCO.[Br-] [N,N-bis(2-hydroxyethyl)-N-methylbutan-1-aminium bromide] |
| -50 ± 6 °C | – | CCCC[N+](CCO)(CCO)CCCC.[Br-] [N-butyl-N,N-bis(2-hydroxyethyl)butan-1-aminium bromide] |
| – | 47 ± 6 °C | CCCCCCCCCC[N+](C)(CCO)CCO.[Br-] [N,N-bis(2-hydroxyethyl)-N-methyldecan-1-aminium bromide] |
| – | 27 ± 6 °C | CCCCCCCC[N+](C)(CCO)CCO.[Br-] [N,N-bis(2-hydroxyethyl)-N-methyloctan-1-aminium bromide] |
| -47 ± 6 °C | – | CCCCCC[N+](C)(CCO)CCO.[Br-] [N,N-bis(2-hydroxyethyl)-N-methylhexan-1-aminium bromide] |
